The values below come from publication PMC7934871 (JCI Insight, 2021).

In one data set the test system is cancer cells. The data set is described as follows: Confocal microscopy of peptide localisation. Type of data set: cell-based. The conditions noted are these: 1 μM, 1 hour. How it is done: (§1) Figure 8 PS-Gp130 and PS-MYC blocking peptides efficiently internalize into tumor cells to exert their functions. (A) For 1 hour 1 μM of PS-conjugated MYC (PS-MYC) and Gp130 (PS-Gp130) were incubated with cancer cells. PS-scramble MYC (PS-SC-MYC) was used as a control for PS-MYC. The peptide uptake was visualized by confocal microscopy and quantified by flow cytometry. Data are representative of 3 independent experiments (n = 3). (B) Upper panel: The binding of PS-Gp130 and STAT3 was examined by immunoprecipitation and Western blotting. PO-Gp130 was used as a control. For 4 hours prior to harvest, 1 μM of peptide was incubated with cells. Lower panel: PS-Gp130 inhibits IL-6–induced phosphorylation of STAT3 and p44/42 but not EGF-mediated signaling. The cells were preincubated with PS-Gp130 for 2 hours and then stimulated with 20 ng/mL of IL-6 or 30 ng/mL of EGF for 30 minutes before harvest and Western blotting. (C) Gene expression of STAT3 targets was examined by quantitative PCR after the treatment with 1 μM of PS-Gp130 with or without IL-6 stimulation as described above. Data shown are 3 independent experiments (n = 3); SD is shown. Unpaired Student’s t test; ***P < 0.005; **P < 0.01; *P < 0.05. (D) A total of 1 μM of PS-SC-MYC or PS-MYC was incubated with cells for 48 hours before the gene expression of MYC targets was examined by quantitative PCR. […]

The test system of another data set is MYC target genes. Put plainly: Gene expression of MYC targets by quantitative PCR. Type of data set: cell-based. The conditions noted are these: 1 μM, 48 hours, n = 3. Here is the method: as §1, with “Lower panel: PS-Gp130 inhibits IL-6–induced phosphorylation of STAT3 and p44/42 but not EGF-mediated signaling. The cells were preincubated with PS-Gp130 for 2 hours and then stimulated with 20 ng/mL of IL-6 or 30 ng/mL of EGF for 30 minutes before harvest and Western blotting.” left out, “Data shown are 3 independent experiments (n = 3); SD is shown. Unpaired Student’s t test; ***P < 0.005; **P < 0.01; *P < 0.05.” left out
Total RNA was extracted from cultured or tumor tissues using RNeasy kit (QIAGEN), according to manufacturer’s instruction. After cDNA synthesis using iScript cDNA Synthesis kit (Bio-Rad), samples were analyzed using pairs of primers specific for CASP9, CASP3, CASP8, BIRC5, BCL2L1, MYC, TP53, VEGF, IL1B, SERPIN3, FGA, CDK4, CCND2, CDKN2A, CDKN2B, GADD45A, mCD274, mMmp9, and mBirc5, as indicated. […]

For data set [1] the following is noted: mouse, in vivo. Here is the method:
Supplemental Figure 10 (related to Figure 3). The systemic toxicity of PS-acet.-peptide.
The bodyweight (A), blood count (B) and organ morphology (H&E staining; spleen, kidney and liver) (C) of the mice (n=3) treated with HBSS (1), PS-oligo (2), naïve peptide (3), PO-peptide (4) or PS-peptide (5) every other day at 1 mg/kg (per treatment) for 3 weeks.
Individual value of each mouse is shown as a dot on the graph. The red lines on each graph in (B) indicate the normal ranges. Blood count was done by a veterinary hematology analyzer. The images shown in (C) are the represented H&E section from three mice (n=3). Enlarged view are shown below as indicated. Scale bar, 50 µm.
Aftabizadeh and Li et al., Figure S10
Supplemental Figure 12 (related to Figure 6).
(A) Amino acid sequences of phosphorothioated (*, PS) DNA oligonucleotide-modified Gp130 (PS-Gp130), MYC (PS-MYC) and scrambled MYC (PS-SC-MYC) peptides. PS-Gp130 peptide spans 9 amino acids of Gp130 protein (amino acids […]). PS-MYC peptide contains 9 amino acids of Max protein (amino acids 77-85).
(B and C) The bodyweight (B, n=5) and blood count (C, n=3) of the mice in each treatment group was measured at the end point. Individual value of each mouse is shown as a dot on the graph. The red lines on each graph indicate the normal ranges.
Aftabizadeh and Li et al., Figure S12

No end group written: not given here.

Regarding “PS-MYC: PS-conjugated peptide corresponding to leucine zipper segment of MAX (amino acids 77–85) (KNHTHQQDI; also: phosphorothioate oligonucleotide conjugate; UniProt P61244 77-85, looked up, fragment)”, the “intracellular localisation / retention of peptide” value with cancer cells was “retained in the nucleus”. For the same substance, in the data set on MYC target genes, the “expression of MYC-mediated cell cycle and survival genes” value was “markedly downregulated”; the “expression of MYC-suppressed target genes” value is “upregulating”. Besides, the “blood count (anemia)” value in data set [1] is on record as “minor anemia”.
